Columns and labels:
Plasma [1] = experiment: (§1) Metabolic stability of the compound in Wistar rat plasma assessed as half life at 1 uM by RP-HPLC analysis; format: ADME, cell-free; details: 1 µM
[2] = Chemical stability of the compound in 0.01 M borate buffer assessed as half life at pH 9.0 by HPLC analysis; format: physicochemical; details: for t1/2: buffer; for half-life: 0.01 M borate buffer
Plasma [3] = experiment: Hydrolytic rate constant, log k of the compound in Wistar rat plasma; format: ADME, cell-free
Liver [4] = experiment: (§2) Metabolic stability of the compound in Wistar rat liver S9 fraction assessed as half life at 1 uM by RP-HPLC analysis; format: ADME, subcellular; details: s9, 1 µM
[5] = Chemical stability of the compound in 0.01 M PBS assessed as compound remaining at pH 7.4 by HPLC analysis; details: buffer; also: time not given here
Liver [6] = experiment: Hydrolytic rate constant, log k of the compound in Wistar rat liver S9 fraction; format: ADME, subcellular
[7] = Metabolic stability of the compound in Wistar rat liver S9 fraction at 1 uM measured after 90 mins by RP-HPLC analysis; format: ADME, subcellular; details: read-out: Stability
[8] = Chemical stability of the compound in 0.01 M borate buffer assessed as half life at 300 nM and pH 9.0 by HPLC analysis; format: physicochemical
[9] = Chemical stability of the compound in 0.01 M borate buffer assessed as half life at 1 uM and pH 9.0 by HPLC analysis; format: physicochemical
[10] = Chemical stability of the compound in 0.01 M borate buffer assessed as half life at 100 nM and pH 9.0 by HPLC analysis; format: physicochemical
[11] = biological target: T1, Fatty-acid amide hydrolase 1 (Rattus norvegicus) (UniProt P97612); experiment: Selectivity index, ratio URB524 pIC50 to compound pIC50 for displacement of [3H]-anandamide from rat brain FAAH after 30 mins by scintillation counting
T1 sequence (whole entry): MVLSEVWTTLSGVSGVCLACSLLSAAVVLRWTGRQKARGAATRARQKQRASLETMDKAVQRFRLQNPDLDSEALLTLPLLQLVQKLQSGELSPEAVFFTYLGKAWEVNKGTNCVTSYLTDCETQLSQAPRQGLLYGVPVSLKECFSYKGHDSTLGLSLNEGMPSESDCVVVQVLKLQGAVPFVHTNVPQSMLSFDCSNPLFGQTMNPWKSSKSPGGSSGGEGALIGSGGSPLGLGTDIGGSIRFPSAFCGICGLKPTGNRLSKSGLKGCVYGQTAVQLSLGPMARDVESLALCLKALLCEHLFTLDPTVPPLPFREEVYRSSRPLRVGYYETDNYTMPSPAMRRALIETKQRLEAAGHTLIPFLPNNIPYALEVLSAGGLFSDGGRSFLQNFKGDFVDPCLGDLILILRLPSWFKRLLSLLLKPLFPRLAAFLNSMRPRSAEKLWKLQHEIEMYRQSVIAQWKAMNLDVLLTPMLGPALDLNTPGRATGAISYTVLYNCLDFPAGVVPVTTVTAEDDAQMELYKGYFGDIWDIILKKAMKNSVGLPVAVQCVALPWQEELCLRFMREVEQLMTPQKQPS

Rattus norvegicus = experiment: In vivo displacement of [3H]-anandamide from rat brain FAAH after 30 mins by scintillation counting; format: functional; details: read-out: ID50 (the source's name)
[12] = biological target: T2, Fatty-acid amide hydrolase 1 (Rattus norvegicus, UniProt P97612); experiment: Displacement of [3H]-anandamide from rat brain FAAH after 30 mins by scintillation counting
T2 sequence (P97612 whole entry): T1 sequence (whole entry)

[13] = as §1; format: ADME, cell-free; details: Wistar
[14] = as §2; format: ADME, subcellular; details: Wistar, liver S9 fraction

O=C(NCc1ccc2ccccc2c1)Oc1cccc(-c2ccccc2)c1
t1/2 (Plasma [1]): 1 min | t1/2 [2]: 23.9 min | Activity (Plasma [3]): -0.17 | t1/2 (Liver [4]): 27.5 min | Stability [5]: 18.4% | Activity (Liver [6]): -1.6

O=C(NC1CCCC1)Oc1cccc(-c2ccccc2)c1
t1/2 (Plasma [1]): 40 min | t1/2 [2]: 45.1 min | Activity (Plasma [3]): -1.76 | t1/2 (Liver [4]): 2.5 min | Stability [5]: 34.4% | Activity (Liver [6]): -0.56

O=C(NCc1cccc2ccccc12)Oc1cccc(-c2ccccc2)c1
t1/2 (Plasma [1]): 7.3 min | t1/2 [2]: 38.7 min | Activity (Plasma [3]): -1.03 | t1/2 (Liver [4]): 46.8 min | Stability [5]: 24.8% | Activity (Liver [6]): -1.83

O=C(NC12CC3CC(CC(C3)C1)C2)Oc1cccc(-c2ccccc2)c1
t1/2 (Plasma [1]): 183.3 min | Activity (Plasma [3]): -2.42 | remaining at 1.5 h, 1 µM [7]: 99.2% | Stability [5]: 66.7% | half-life at 0.3 µM [8]: 262 min | half-life at 1 µM [9]: 266 min | half-life at 0.1 µM [10]: 264 min

O=C(NC1Cc2ccccc2C1)Oc1cccc(-c2ccccc2)c1
t1/2 (Plasma [1]): 16.5 min | t1/2 [2]: 22.4 min | Activity (Plasma [3]): -1.38 | t1/2 (Liver [4]): 63.1 min | Stability [5]: 16.2% | Activity (Liver [6]): -1.96

CC(C)NC(=O)Oc1cccc(-c2ccccc2)c1
t1/2 (Plasma [1]): 20 min | t1/2 [2]: 61.8 min | Activity (Plasma [3]): -1.46 | t1/2 (Liver [4]): 1.9 min | Stability [5]: 34.6% | Activity (Liver [6]): -0.45

O=C(NCCCCCCN1CCOCC1)Oc1cccc(-c2ccccc2)c1
t1/2 (Plasma [1]): 8 min | t1/2 [2]: 33.4 min | Activity (Plasma [3]): -1.06 | t1/2 (Liver [4]): 13 min | Stability [5]: 30.9% | Activity (Liver [6]): -1.27

O=C(NCCCCc1ccccc1)Oc1cccc(-c2ccccc2)c1
Ratio pIC50 [11]: 10 | t1/2 (Plasma [1]): 6.6 min | ED50 (Rattus norvegicus): 0.96 mg/kg | Activity (Plasma [3]): -0.98 | t1/2 (Liver [4]): 19.3 min | Stability [5]: 35.9% | half-life at 0.3 µM [8]: 42 min | Activity (Liver [6]): -1.44 | half-life at 1 µM [9]: 43.1 min | half-life at 0.1 µM [10]: 41.7 min

CCCCNC(=O)Oc1cccc(-c2ccccc2)c1
t1/2 (Plasma [1]): 21.6 min | t1/2 [2]: 42.9 min | Activity (Plasma [3]): -1.49 | t1/2 (Liver [4]): 1.8 min | Stability [5]: 46.7% | Activity (Liver [6]): -0.41

O=C(NCc1ccccc1)Oc1cccc(-c2ccccc2)c1
t1/2 (Plasma [1]): 14.3 min | t1/2 [2]: 26.5 min | Activity (Plasma [3]): -1.32 | t1/2 (Liver [4]): 10.8 min | Stability [5]: 22.7% | Activity (Liver [6]): -1.19

CNC(=O)Oc1cccc(-c2ccccc2)c1
t1/2 (Plasma [1]): 3.8 min | t1/2 [2]: 43.8 min | Activity (Plasma [3]): -0.74 | t1/2 (Liver [4]): 7.4 min | Stability [5]: 33.9% | Activity (Liver [6]): -1.03

NC(=O)c1cccc(-c2cccc(OC(=O)NCCCCc3ccccc3)c2)c1
pIC50 [12]: 9.48 | t1/2 (Plasma [1]): 4.2 min | t1/2 [2]: 30.3 min | t1/2 (Liver [4]): 46.9 min | Stability [5]: 18.8%

NC(=O)c1cccc(-c2cccc(OC(=O)NC3CCCCC3)c2)c1 [URB-597]
half-life at 1 µM [13]: 33 min | half-life [2]: 33 min | half-life at 1 µM [14]: 58.7 min | Stability [5]: 40.2%

NC(=O)c1cccc(-c2cccc(OC(=O)NCc3ccc4ccccc4c3)c2)c1
t1/2 (Plasma [1]): 5.6 min | t1/2 [2]: 13.9 min | t1/2 (Liver [4]): 39 min | Stability [5]: 22.8%

O=C(NCCc1ccccc1)Oc1cccc(-c2ccccc2)c1
t1/2 (Plasma [1]): 22.1 min | t1/2 [2]: 40 min | Activity (Plasma [3]): -1.5 | t1/2 (Liver [4]): 2.7 min | Stability [5]: 34.9% | Activity (Liver [6]): -0.59

CCCCCCNC(=O)Oc1cccc(-c2ccccc2)c1
t1/2 (Plasma [1]): 7.5 min | t1/2 [2]: 68.3 min | Activity (Plasma [3]): -1.03 | t1/2 (Liver [4]): 8 min | Stability [5]: 46.7% | Activity (Liver [6]): -1.06

O=C(NC1CCC1)Oc1cccc(-c2ccccc2)c1
t1/2 (Plasma [1]): 19.9 min | t1/2 [2]: 27.5 min | Activity (Plasma [3]): -1.46 | t1/2 (Liver [4]): 2.5 min | Stability [5]: 22.6% | Activity (Liver [6]): -0.56

O=C(NC1CCCCC1)Oc1cccc(-c2ccccc2)c1
half-life at 1 µM [13]: 42.7 min | half-life [2]: 40.7 min | ED50 (Rattus norvegicus): 0.81 mg/kg | Activity (Plasma [3]): -1.79 | half-life at 1 µM [14]: 6 min | Stability [5]: 41.1% | half-life at 0.3 µM [8]: 42.7 min | Activity (Liver [6]): -0.94 | half-life at 1 µM [9]: 40.4 min | half-life at 0.1 µM [10]: 42.3 min

O=C(NCCCCCCc1ccccc1)Oc1cccc(-c2ccccc2)c1
t1/2 (Plasma [1]): 8.4 min | t1/2 [2]: 73.8 min | Activity (Plasma [3]): -1.08 | t1/2 (Liver [4]): 39.4 min | Stability [5]: 61.1% | Activity (Liver [6]): -1.75

O=C(NCC1CCCCC1)Oc1cccc(-c2ccccc2)c1
t1/2 (Plasma [1]): 15.3 min | t1/2 [2]: 104.8 min | Activity (Plasma [3]): -1.35 | t1/2 (Liver [4]): 9.8 min | Stability [5]: 65.4% | Activity (Liver [6]): -1.15

Reference: ChEMBL document CHEMBL1828508, “Biphenyl-3-yl alkylcarbamates as fatty acid amide hydrolase (FAAH) inhibitors: steric effects of N-alkyl chain on rat plasma and liver stability” (Eur J Med Chem, 2011)
